Legend:
[1] = system: LLC1 lung cancer cells; experiment: Cell viability assay (MTT assay), growth inhibition of LLC1 cells; type: cell-based, mouse; details: normal culture condition
Experimental: Human umbilical vein endothelial cells (HUVECs; #8000) were purchased from the ScienCell Research Laboratories (San Diego, Calif., USA). The cells were seeded on gelatin-coated culture dishes and grown in the commercial endothelial cell medium (#1001; ScienCell) containing 5% fetal bovine serum (FBS; #0025; ScienCell), 30 μg/mL endothelial cell growth supplements (ECGS; #1052; ScienCell), 100 units/mL penicillin G, and 100 μg/mL streptomycin sulfates (#0503; ScienCell). Cells at passage 3-6 were used for experiments. Mouse Lewis lung carcinoma cell line 1 (LLC1; #60050) was bought from the Food Industry Research and Development Institute (Hsinchu, Taiwan) and cultured in Gibco® Dulbecco's modified Eagle's medium (#12800-017; Invitrogen, Carlsbad, Calif., USA) supplemented with 10% FBS (HyClone, Logan, Utah, USA), 4 mM L-glutamine, 1.5 g/L sodium bicarbonate, 100 units/mL penicillin G, and 100 μg/mL streptomycin. All cells were incubated in a humidified 5% CO2 atmosphere at 37° C. and culture media was changed every 2˜3 days.
The experiments were performed according to our previous study with minor modifications (Pan et al., 2010). […] Absorbance values at 570 nm were determined for each well using 650 nm as the reference wavelength. The absorbance of the control group (treated with 5% or 10% FBS alone) was defined as 100%.

[2] = system: angiogenesis in chick chorioallantoic membrane; experiment: Chick chorioallantoic membrane (CAM) assay; details: ex vivo supplementary data, dose-dependent
[3] = system: VEGFR-2; experiment: VEGFR-2 expression in HUVECs (immunoblot); type: cell-based, human; details: FIG. 6A
Experimental: (§1) The experiments were carried out as described previously (Pan et al., 2010). Briefly, the cells (5×10^5 cells/well) seeded on the 6-well plates and incubated with different concentrations (0.5, 1, and 2 μM) of K20E under normal culture condition for 15 min or 24 h to detect the expression levels of the phosphorylated proteins and the total proteins, respectively. The treated cells were harvested and lysed by using PROPREP® protein extraction solution (#17081; iNtRON Biotechnology, Gyeonggi-Do, South Korea). The cell lysates were further centrifuged at 13000×g at 4° C. for 10 min to collect the supernatants for sodium dodecyl sulfate-polyacrylamide gel electrophoresis (SDS-PAGE). Protein concentration was measured by the Bio-Rad protein assay kit (Bio-Rad, Hercules, Calif., USA) according to the manufacturer's instructions. Aliquots containing 30 μg protein were electrophoresed using 10% slab SDS-PAGE gels and then transferred to PVDF membranes (Immobilon-P™; Millipore, Bedford, Mass., USA). […] The luminescence signal was acquired by Fujifilm LAS-4000 system (San Leandro, Calif., USA) and quantified by using MultiGauge software (v3.0; Fujifilm). […] The relative protein expression was calculated according to the values of the control group (treated with 5% or 10% FBS alone) as 100%.

[4] = system: gelatinases (MMP-2 and MMP-9); experiment: Gelatinase protein (immunoblot) and activity (gelatin zymography) in HUVECs; type: cell-based, human; details: FIG. 6D
Experimental: as §1, with “instructions.” for “instructions. Aliquots containing 30 μg protein were electrophoresed using 10% slab SDS-PAGE gels and then transferred to PVDF membranes (Immobilon-P™; Millipore, Bedford, Mass., USA).”
The experiments were carried out according to the procedure of previous study with minor modification (Chen et al., 2012). […] The intensity of the digested bands was quantified by using Multi Gauge software. […]

[5] = system: p53-p21 pathway; experiment: p53 and p21 protein levels in HUVECs (immunoblot); type: cell-based, human; details: FIG. 7
Experimental: as §1

activity levels of gelatinases (MMP-2 and MMP-9) ([4]; gelatin zymography): evidently decreased | protein levels of gelatinases (MMP-2 and MMP-9) ([4]; immunoblot): evidently decreased
SMILES: COC(=O)/C=C/c1cc(OC(C)=O)c2c(c1)[C@H](C(=O)OC)[C@@H](c1ccc(OC(C)=O)c(OC(C)=O)c1)O2 [K20E]
GI50 ([1]; Mus musculus, LLC1 lung cancer cells, data not shown, read-out: GI50 value on LLC1 (concentration that causes 50% growth inhibition)): ~79.4 µM | cell viability of the LLC1 lung cancer cells [1]: significantly inhibit | angiogenesis in CAM assay [2]: effectively reduce the angiogenesis | expression level of intracellular and surface VEGFR-2 [3]: markedly down-regulated | expression level of p21 protein [5]: dose-dependently increased | expression level of p53 protein [5]: dose-dependently increased
